# Measured values as given in patent publication US9795646B2, “Boswellia oil, its fractions and compositions for enhancing brain function” (LAILA NUTRACEUTICALS, priority 2010, dated 2017).
# Legend:
# Assay type in all cases: cell-based
# [1] = target: T1, acetylcholine esterase (AChE) (Rattus norvegicus, UniProt P37136); assay: Acetylcholine esterase inhibitory activity in β-amyloid peptide induced PC 12 cells; details: Beta Amyloid induced PC12 cells, Table 8
# T1 construct: The cell extracts were used as samples for measuring the acetylcholine esterase (AChE) activity; endogenous in cells; host or cells: rat pheochromocytoma PC 12 cells, induced with β-amyloid peptide
# T1 sequence (P37136 32-614): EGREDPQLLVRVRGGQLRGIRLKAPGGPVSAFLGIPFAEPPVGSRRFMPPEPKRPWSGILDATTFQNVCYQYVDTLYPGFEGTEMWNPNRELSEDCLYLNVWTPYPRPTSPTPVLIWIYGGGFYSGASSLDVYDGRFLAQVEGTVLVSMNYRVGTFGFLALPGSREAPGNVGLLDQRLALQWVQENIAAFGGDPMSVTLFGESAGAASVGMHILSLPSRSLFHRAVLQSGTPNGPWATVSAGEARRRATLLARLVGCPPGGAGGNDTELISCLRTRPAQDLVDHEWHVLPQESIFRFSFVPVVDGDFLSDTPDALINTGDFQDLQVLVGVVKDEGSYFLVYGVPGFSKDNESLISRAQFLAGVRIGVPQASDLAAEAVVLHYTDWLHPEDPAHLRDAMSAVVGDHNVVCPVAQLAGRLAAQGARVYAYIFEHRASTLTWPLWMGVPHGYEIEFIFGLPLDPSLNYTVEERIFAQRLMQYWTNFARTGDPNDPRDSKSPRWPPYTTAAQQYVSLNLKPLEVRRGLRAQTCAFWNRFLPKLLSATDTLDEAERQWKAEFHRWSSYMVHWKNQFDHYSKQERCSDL
# Description: As a part of developing new agents for improving brain/mental function and alleviating disease conditions related to cognition and memory deficits, a large number of plant extracts have been screened for their inhibitory property on Acetylcholinesterase enzyme activity. The assay was performed in vitro by the method of Ellman et al., with minor modifications, using acetylthiocholine iodide as a substrate (Lee J. H., et. al. Arch Pharm Res 2004, 27(1): 53-56). […] Its acetylcholinesterase inhibitory activity was also evaluated by a cell based in vitro assay in Rat pheochromocytoma PC 12 cells. […] Rat pheochromocytoma PC 12 cells were equally distributed with phenol red free Dulbecco's modified Eagle's red medium (DMEM) (Sigma Life Science, USA) containing 10% fetal bovine serum (FBS) in 24-well plate. […] Thereafter, cells were induced with 1 μg/mL of β-amyloid peptide (Calbiochem, USA) for 24 h at 37° C. After 24 h, cells were collected and washed twice with 1×PBS by centrifugation at 1200 rpm for 5 min at 4° C. The cell extracts were prepared in solubilization buffer and the cell lysates were analyzed for acetylcholine esterase (AChE) activity.
# The inhibitory property on the enzyme activity was assessed in β-amyloid peptide induced-rat pheochromocytoma PC 12 cells. Rat pheochromocytoma PC 12 cells were equally distributed with phenol red free Dulbecco's modified Eagle's red medium (DMEM) (Sigma Life Science, USA) containing 10% fetal bovine serum (FBS) in 24-well plate. […] Thereafter, cells were induced with 1 μg/mL of β-amyloid peptide (Calbiochem, USA) for 24 h at 37° C. After 24 h, cells were collected and washed twice with 1×PBS by centrifugation at 1200 rpm for 5 min at 4° C. Cell extracts were prepared in solubilization buffer (10 mM Tris, pH 7.2; 100 mM NaCl, 50 mM MgCl2, 1% Triton X-100). The cell extracts were used as samples for measuring the acetylcholine esterase (AChE) activity.
# Cell extract samples (100 μl) were dispensed into each well of 96-well microtitre plate. Fifty micro liters of DTNB (Dithiobisnitro benzoate) solution was added to each well and incubated for 5 min at room temperature. After incubation, 50 μl of acetyl choline iodide solution was added to each well and absorbance was read immediately at 405 nm for 12 min at 2 min intervals. A standard curve was constructed by using serial concentrations of acetyl cholinesterase (0-100 mU). Total protein present in 100 μl aliquot of cell extract was calculated by Bradford method and the enzyme activity was normalized and expressed as unit activity per milligram of protein.
# [2] = tested on: RAW 264.7 mouse macrophages; assay: Assay for measuring reactive oxygen species (ROS), DCFH-DA, H2O2; details: H2O2 treated RAW 264.7 cells
# Description: Formation of ROS was measured using of the fluorescent probe DCFH-DA. The method is based on the incubation of the RAW 264.7 mouse macrophages with DCFH-DA, which diffuses passively through the cellular membrane. Intracellular esterase activity results in the formation of DCFH, which emits fluorescence when oxidized to 20, 70-dichlorofluorescein (DCF). Briefly, the cells (final concentration 2×10^6/ml suspension) were incubated with DCFH-DA ([…]) in HEPES-buffered (20 mM) HBSS (CaCl2 1.26 mM, KCL 5.37 mM, KH2PO4 0.44 mM; MgCl2
# 0.49 mM, MgSO4 0.41 mM, NaCl 140 mM, NaHCO3 4.17 mM, Na2HPO4 0.34 mM) with glucose (5 mM) at 37° C. for 15 min. Following centrifugation, the extracellular buffer with DCFH-DA was exchanged with fresh buffer and the suspension was mixed gently. […] Fluorescence was recorded using excitation wavelength 485 nm, emission wavelength 530 nm in a Modulus luminescence spectrometer (Turner Biosystems, USA) for 120 min. Results are calculated as area under the curve (AUC) and the percentage of inhibition of intracellular ROS generation was calculated from the cultures treated with H2O2.
# [3] = tested on: IMR32 human neuroblastoma cells; assay: MTT cell proliferation assay, protection from oxidative stress induced cytotoxic damage; details: vehicle control 100.00, H2O2 alone 78.71
# Description: Briefly, IMR32 human neuroblastoma cells were cultivated in Dulbecco's modified Eagle's red medium (DMEM) (Sigma Life Science, USA) containing 10% fetal bovine serum (FBS). Equal number of IMR32 cells was seeded in to each well of 96 well microplate and incubated at 37° C. with 5% CO2. […] Control wells were supplemented with 0.05% DMSO. After 72 h of treatment, equal volume of MTT reagent (R&D Systems, USA) was added to each well and incubated for 4 h. Thereafter, 50 μl of solublization buffer (R&D Systems, USA) was added to each well to solubilize the colored formazan crystals produced by the reduction of MTT. After 24 h, the optical density was measured at 550 nm using microplate reader (Bio-Rad, USA). In each assay, the vehicle control and the treatments were done in quadruplicates. The average OD obtained in the vehicle control wells is considered as the cell proliferation index of 100.
structure (smiles),measurement,setting,value
COc1c(O)cc2oc3cc(O)c(CC=C(C)C)c(O)c3c(=O)c2c1CC=C(C)C [α-mangostin],% inhibition in Acetylcholinesterase (AChE) activity,[1]; 100 ng/ml,26.83%
same,% inhibition in Acetylcholinesterase (AChE) activity,[1]; 250 ng/ml,29.48%
same,Inhibition of Reactive Oxygen Species (ROS) generation (IC50),[2],49.817 µg/mL
same,Cell proliferation Index,"[3]; 10 ng/ml with 250 uM H2O2, 72 h",80.32
same,Cell proliferation Index,"[3]; 25 ng/ml with 250 uM H2O2, 72 h",86.78
same,Cell proliferation Index,"[3]; 50 ng/ml with 250 uM H2O2, 72 h",87.21
same,Cell proliferation Index,"[3]; 100 ng/ml with 250 uM H2O2, 72 h",91.78
